Measurements from patent US4501699A, “Maggiemycin, anhydromaggiemycin and processes for making” (Litton Bionetics, Inc., priority 1982, dated 1985).
Values after ≈ are worked out from the molar mass of the structure shown.

Assays:
[1] = test system: murine tumor cell lines KB, L1210 and P388; experiment: In vitro activity against one or all of the murine tumor cell lines KB, L1210 and P388; type: cell-based; settings: for in vitro antitumor activity: one or all of KB, L1210 and P388
From the text: (§1) A suitable solvent system was developed for the isolation of pure compounds of the invention by using the following systems in TLC. (A) chloroform (100%), (B) chloroform-ethyl acetate (80:20), (C) chloroform-acetone (80:20), (D) chloroform-methanol (80:20), (E) chloroform-acetic acid (95:5), (F) chloroform-acetone-acetic acid (90:8:2), (G) chloroform-hexane-acetic acid (50:50:5), (H) ether-petroleum ether (1:1), (I) chloroform-benzene methanol (6:3:1), (J) chloroform-benzene-methanol (7:3:2), (K) benzene-ethylacetate-methanol-formic acid-water (5:5:1.5:1:0.3), (L) chloroform-hexane-methanol (5:5:1) and (M) chloroform-heptane-methanol-acetic acid (40:40:18:2). In some of the solvents the order of elution changed. […] The crude compound was therefore chromatographed on a TLC grade silica gel column eluting with chloroform (100%), chlorform-acetic acid (99:1), chloroform-acetic acid (98:2), and chloroform-acetic acid (95:5). Based on the TLC, various fractions were combined to produce a red and purple eluate. These were separately concentrated and precipitated with chloroform-petroleum ether to yield red and purple powder. The red powder has been designated as maggiemycin (NSC-D344012) and the purple powder as anhydromaggiemycin. Both these compounds were active against Bacillus subtilis and Straphylococcus aureus. The in vitro antitumor activity of maggiemycin and anhydromaggiemycin against KB, P388 and L1210 murine cell lines is shown in Table 1.
The biological activity of these newly isolated anthracyclinones was compared with some of the known anthracyclinones. Each compounds was tested for in vitro activity against one or all of the murine tumor cell lines KB, L1210 and P388.

KB = experiment: In vitro cytotoxicity (growth inhibition) against KB; type: cell-based, murine; settings: Homo sapiens, dose level at which 50% inhibition of growth in vitro is noted vs. untreated controls, read-out: ED50 KB
From the text: as §1, with “The in vitro antitumor activity of maggiemycin and anhydromaggiemycin against KB, P388 and L1210 murine cell lines is shown in Table 1.” left out

L1210 = experiment: In vitro cytotoxicity (growth inhibition) against L1210; type: cell-based, murine; settings: Mus musculus, dose level at which 50% inhibition of growth in vitro is noted vs. untreated controls, read-out: ED50 L1210
From the text: as §1, with “The in vitro antitumor activity of maggiemycin and anhydromaggiemycin against KB, P388 and L1210 murine cell lines is shown in Table 1.” left out

P388 = experiment: In vitro cytotoxicity (growth inhibition) against P388; type: cell-based, murine; settings: Mus musculus, dose level at which 50% inhibition of growth in vitro is noted vs. untreated controls, read-out: ED50 P388
From the text: as §1, with “The in vitro antitumor activity of maggiemycin and anhydromaggiemycin against KB, P388 and L1210 murine cell lines is shown in Table 1.” left out

Bacillus subtilis = experiment: Antibacterial activity against Bacillus subtilis; type: cell-based
Straphylococcus aureus = experiment: Antibacterial activity against Straphylococcus aureus; type: cell-based

COc1cccc2c1C(=O)c1c(O)c3c(c(O)c1C2=O)C[C@@](O)(C(C)=O)C[C@@H]3O [daunorubicinone, Daunorubicinone, reference compound]
in vitro antitumor activity [1]: inactive

CC[C@@]1(O)CC(=O)c2c(O)c3c(c(O)c2[C@H]1C(=O)OC)C(=O)c1cccc(O)c1C3=O [Maggiemycin]
IC50 (KB): 2.7 µg/mL (≈ 6.33 µM)
IC50 (L1210): 5.2 µg/mL (≈ 12.2 µM)
IC50 (P388): 4.4 µg/mL (≈ 10.3 µM)
in vitro antitumor activity [1]: active
activity against Bacillus subtilis (Bacillus subtilis): active
activity against Straphylococcus aureus (Straphylococcus aureus): active

CC[C@@]1(O)C[C@H](O)c2c(O)c3c(c(O)c2[C@H]1C(=O)OC)C(=O)c1cccc(O)c1C3=O [ε-rhodomycinone, ε-Rhodomycinone, reference compound]
in vitro antitumor activity [1]: inactive

COc1cccc2c1C(=O)c1c(O)c3c(c(O)c1C2=O)C[C@@](O)(C(C)=O)CC3=O [7-oxidodaunorubicinone]
in vitro antitumor activity [1]: active

COc1cccc2c1C(=O)c1c(c(O)c3cc(C(C)=O)cc(O)c3c1O)C2=O [anhydro-7-oxidodaunorubicinone, Anhydro-7-oxidodaunorubicinone]
in vitro antitumor activity [1]: inactive

CCc1cc(O)c2c(O)c3c(c(O)c2c1C(=O)OC)C(=O)c1cccc(O)c1C3=O [Anhydromaggiemycin]
IC50 (KB): 0.51 µg/mL (≈ 1.25 µM)
IC50 (L1210): 0.26 µg/mL (≈ 0.637 µM)
IC50 (P388): 0.62 µg/mL (≈ 1.52 µM)
in vitro antitumor activity [1]: active
in vitro antitumor activity, comparison of anhydromaggiemycin with maggiemycin ([1]; relative to maggiemycin): more active than maggiemycin
activity against Bacillus subtilis (Bacillus subtilis): active
activity against Straphylococcus aureus (Straphylococcus aureus): active
